target: T1, glucosylceramide synthase (Homo sapiens, UniProt Q16739); assay: Glucosylceramide synthase (GCS) enzyme assay, microsome fraction, C8 glucosylceramide quantified by Rapidfire MS/MS; assay type: biochemical; details: test compound 10 μM; 1.7 μM UDP-glucose, 3 μM C8 ceramide; room temperature 60 min; read-out: GCS enzyme inhibitory rate at 10 μM (%) (% of control)
T1 construct: made in house; host or cells: Expi293F cells (transient expression, pcDNA3.3-TOPO vector); microsome fraction used as enzyme source
T1 sequence (Q16739 1-394): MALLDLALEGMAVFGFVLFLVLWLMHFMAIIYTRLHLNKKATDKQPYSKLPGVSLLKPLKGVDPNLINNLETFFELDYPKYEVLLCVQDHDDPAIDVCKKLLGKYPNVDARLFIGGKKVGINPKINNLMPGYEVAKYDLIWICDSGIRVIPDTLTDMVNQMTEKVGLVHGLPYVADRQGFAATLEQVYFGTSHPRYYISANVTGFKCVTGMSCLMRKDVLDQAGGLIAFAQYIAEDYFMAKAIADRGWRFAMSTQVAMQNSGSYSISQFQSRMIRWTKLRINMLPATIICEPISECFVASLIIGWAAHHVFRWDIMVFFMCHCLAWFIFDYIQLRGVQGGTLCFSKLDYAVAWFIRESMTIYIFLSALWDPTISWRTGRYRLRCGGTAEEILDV
Procedure, shortened: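 Test compound, 10 μM final, was run against human GCS from transfected Expi293F microsome fractions, using substrate solution of 6 μM C8 ceramide (in DOPC liposomes) plus 3.4 μM UDP-glucose, pH 7.5 Tris buffer, 60 min, room temperature. Product C8 glucosylceramide measured by Rapidfire MS/MS against an internal standard, % inhibition referenced to no-enzyme and DMSO wells.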

Compound | inhibition at 10 µM [%]
Cc1cc2c(c(-c3ccccc3OCC(F)(F)F)n1)CN(c1ccc(C(C)(C)O)nc1)C2=O [Example 326, 2-[6-(2-hydroxypropan-2-yl)pyridin-3-yl]-6-methyl-4-[2-(2,2,2-trifluoroethoxy)phenyl]-2,3-dihydro-1H-pyrrolo[3,4-c]pyridin-1-one] | 99
CS(=O)(=O)c1ccc(N2Cc3cnn(-c4ccccc4OCC(F)(F)F)c3C2)cc1 [Example 207, 5-[4-(methanesulfonyl)phenyl]-1-[2-(2,2,2-trifluoroethoxy)phenyl]-1,4,5,6-tetrahydropyrrolo[3,4-c]pyrazole] | 99
O=C1c2ccnc(-c3ccccc3OC(F)F)c2CN1c1ccc(OC(F)(F)F)cn1 [Example 62, 4-[2-(difluoromethoxy)phenyl]-2-[5-(trifluoromethoxy)pyridin-2-yl]-2,3-dihydro-1H-pyrrolo[3,4-c]pyridin-1-one] | 95
COc1cc(F)ccc1-c1cncc2c1CN(c1ccc(F)cc1)C2=O [Example 80, 7-(4-fluoro-2-methoxyphenyl)-2-(4-fluorophenyl)-1,2-dihydro-3H-pyrrolo [3,4-c]pyridin-3-one] | 72
CC(C)(C)c1cc2c(c(-c3ccccc3OCC(F)(F)F)n1)CN(c1ccc(C(C)(C)O)cc1)C2=O [Example 389, 6-tert-butyl-2-[4-(2-hydroxypropan-2-yl)phenyl]-4-[2-(2,2,2-trifluoroethoxy)phenyl]-2,3-dihydro-1H-pyrrolo[3,4-c]pyridin-1-one] | 100
O=C1c2ccnc(-c3ccncc3OCC(F)(F)F)c2CN1c1ccc(C(O)(C(F)F)C(F)F)cc1 [Example 284, 2-[4-(1,1,3,3-tetrafluoro-2-hydroxypropan-2-yl)phenyl]-4-[3-(2,2,2-trifluoroethoxy)pyridin-4-yl]-2,3-dihydro-1H-pyrrolo[3,4-c] pyridin-1-one] | 99
COC(=O)c1ccc(N2CC3=C(OC[C@H](C)N=C3c3ccccc3OCC(F)(F)F)C2=O)cc1 [Example 331, methyl 4-{(3S)-3-methyl-8-oxo-5-[2-(2,2,2-trifluoroethoxy)phenyl]-2,3,6,8-tetrahydro-7H-pyrrolo [3,4-f][1,4]oxazepin-7-yl}benzoate] | 91
O=C1C2=C(CN1c1ccc(OCC(F)(F)F)cc1)C(c1ccc(F)cc1OCC(F)(F)F)=NCCN2 [Example 176, 5-[4-fluoro-2-(2,2,2-trifluoroethoxy)phenyl]-7-[4-(2,2,2-trifluoroethoxy)phenyl]-2,3,6,7-tetrahydropyrrolo[3,4-e][1,4]diazepin-8(1H)-one] | 100
O=C1c2ccnc(-c3ccccc3OC(F)F)c2CN1c1ccc(OC(F)F)nc1 [Example 74, 4-[2-(difluoromethoxy)phenyl]-2-[6-(difluoromethoxy)pyridin-3-yl]-2,3-dihydro-1H-pyrrolo[3,4-c]pyridin-1-one] | 91
CN1CCN=C(c2ccc(F)cc2OCC(F)(F)F)C2=C1C(=O)N(c1ccc(OCC(F)(F)F)cc1)C2 [Example 179, 5-[4-fluoro-2-(2,2,2-trifluoroethoxy)phenyl]-1-methyl-7-[4-(2,2,2-trifluoroethoxy)phenyl]-2,3,6,7-tetrahydropyrrolo[3,4-e][1,4]diazepin-8(1H)-one] | 91
O=C1C2=C(CN1c1ccc(OCC(F)(F)F)cc1)C(c1ccc(F)cc1OCC(F)(F)F)=NCCO2 [Example 209, 5-[4-fluoro-2-(2,2,2-trifluoroethoxy)phenyl]-7-[4-(2,2,2-trifluoroethoxy)phenyl]-2,3,6,7-tetrahydro-8H-pyrrolo[3,4-f][1,4]oxazepin-8-one] | 98
CC(C)(O)C(F)(F)c1ccc(N2Cc3c(ccnc3-c3ccccc3OCC(F)F)C2=O)cc1 [Example 339, 4-[2-(2,2-difluoroethoxy)phenyl]-2-[4-(1,1-difluoro-2-hydroxy-2-methylpropyl)phenyl]-2,3-dihydro-1H-pyrrolo[3,4-c]pyridin-1-one] | 99
CSc1ccccc1-c1nccc2c1CN(c1ccc(F)cc1)C2=O [Example 31, 2-(4-fluorophenyl)-4-[2-(methylsulfanyl)phenyl]-2,3-dihydro-1H-pyrrolo[3,4-c]pyridin-1-one] | 93
CC(C)(O)c1ccc(N2Cc3c(ccnc3-c3ccc(F)cc3OCC(F)F)C2=O)cc1F [Example 274, 4-[2-(2,2-difluoroethoxy)-4-fluorophenyl]-2-[3-fluoro-4-(2-hydroxypropan-2-yl)phenyl]-2,3-dihydro-1H-pyrrolo[3,4-c]pyridin-1-one] | 97
O=C1c2ccnc(-c3ccc(F)cc3OCC(F)(F)F)c2CN1c1ncc(OC(F)F)cn1 [Example 99, 2-[5-(difluoromethoxy)pyrimidin-2-yl]-4-[4-fluoro-2-(2,2,2-trifluoroethoxy)phenyl]-2,3-dihydro-1H-pyrrolo[3,4-c]pyridin-1-one] | 92

Other lines, results leading:

inhibition at 10 µM [%] | Compound
100 | CC(C)(O)c1ccc(N2Cc3c(ccnc3-c3ccccc3OCC(F)(F)F)C2=O)cc1F [Example 262, 2-[3-fluoro-4-(2-hydroxypropan-2-yl)phenyl]-4-[2-(2,2,2-trifluoroethoxy)phenyl]-2,3-dihydro-1H-pyrrolo[3,4-c]pyridin-1-one]
100 | O=C1c2ccnc(-c3ccccc3OCC(F)F)c2CN1c1ccc(C2(O)CCC2)cc1 [Example 290, 4-[2-(2,2-difluoroethoxy)phenyl]-2-[4-(1-hydroxycyclobutyl)phenyl]-2,3-dihydro-1H-pyrrolo[3,4-c] pyridin-1-one]
99 | O=C1c2ccnc(-c3ccc(F)cc3OCC(F)(F)F)c2CN1c1ccc(C2(O)CCOCC2)cc1 [Example 208, 4-[4-fluoro-2-(2,2,2-trifluoroethoxy)phenyl]-2-[4-(4-hydroxyoxatan-4-yl)phenyl]-2,3-dihydro-1H-pyrrolo[3,4-c]pyridin-1-one]
87 | N#Cc1ccc(N2Cc3c(ccnc3-c3ccccc3OCC(F)(F)F)C2=O)cc1 [Example 68, 4-{1-oxo-4-[2-(2,2,2-trifluoroethoxy)phenyl]-1,3-dihydro-2H-pyrrolo[3,4-c]pyridin-2-yl}benzonitrile]
95 | O=C1c2ccnc(-c3ccc(F)cc3OCC(F)(F)F)c2CN1c1ccc(OC(F)F)nc1 [Example 65, 2-[6-(difluoromethoxy)pyridin-3-yl]-4-[4-fluoro-2-(2,2,2-trifluoroethoxy)phenyl]-2,3-dihydro-1H-pyrrolo[3,4-c]pyridin-1-one]
98 | O=C1c2ccnc(-c3ccc(F)cc3OCC(F)(F)F)c2CN1c1ccc(OCC2(F)COC2)cc1 [Example 194, 2-{4-[(3-fluorooxetan-3-yl)methoxy]phenyl}-4-[4-fluoro-2-(2,2,2-trifluoroethoxy)phenyl]-2,3-dihydro-1H-pyrrolo[3,4-c]pyridin-1-one]
86 | CS(=O)(=O)c1ccc(N2Cc3ccnc(-c4ccc(F)cc4OCC(F)(F)F)c3C2)cc1 [Example 140, 4-[4-fluoro-2-(2,2,2-trifluoroethoxy)phenyl]-2-[4-(methanesulfonyl)phenyl]-2,3-dihydro-1H-pyrrolo[3,4-c]pyridine]
63 | O=C1c2ccnc(-c3ccc(F)cc3OCC(F)(F)F)c2CN1c1ccc(F)cc1 [Example 13, 2-(4-fluorophenyl)-4-[4-fluoro-2-(2,2,2-trifluoroethoxy)phenyl]-2,3-dihydro-1H-pyrrolo[3,4-c]pyridin-1-one]
96 | CC(C)(O)c1ccc(N2Cc3c(ccnc3-c3ccccc3OCC(F)(F)F)C2=O)cn1 [Example 184, 2-[6-(2-hydroxypropan-2-yl)pyridin-3-yl]-4-[2-(2,2,2-trifluoroethoxy)phenyl]-2,3-dihydro-1H-pyrrolo[3,4-c]pyridin-1-one]
101 | CC(C)(O)c1ccc(N2Cc3c(cc(C4CCOCC4)nc3-c3ccccc3OCC(F)(F)F)C2=O)cc1 [Example 379, 2-[4-(2-hydroxypropan-2-yl)phenyl]-6-(oxan-4-yl)-4-[2-(2,2,2-trifluoroethoxy)phenyl]-2,3-dihydro-1H-pyrrolo[3,4-c]pyridin-1-one]
98 | O=C1c2ccnc(-c3ccc(F)cc3OCC(F)(F)F)c2CN1c1ccc(O[C@H]2CCOC2)cc1 [Example 165, 4-[4-fluoro-2-(2,2,2-trifluoroethoxy)phenyl]-2-(4-{[(3S)-oxolan-3-yl]oxy}phenyl)-2,3-dihydro-1H-pyrrolo[3,4-c]pyridin-1-one]
99 | O=C1c2ccnc(-c3ccccc3OCC(F)(F)F)c2CN1c1ccc(C2(O)CC(F)(F)C2)nc1 [Example 316, 2-[6-(3,3-difluoro-1-hydroxycyclobutyl)pyridin-3-yl]-4-[2-(2,2,2-trifluoroethoxy)phenyl]-2,3-dihydro-1H-pyrrolo[3,4-c]pyridin-1-one]
85 | COCCn1cc(N2Cc3c(ccnc3-c3ccc(F)cc3OCC(F)(F)F)C2=O)cn1 [Example 154, 4-[4-fluoro-2-(2,2,2-trifluoroethoxy)phenyl]-2-[1-(2-methoxyethyl)-1H-pyrazol-4-yl]-2,3-dihydro-1H-pyrrolo[3,4-c]pyridin-1-one]
